We go through 31 molecules from patent publication US20240025893A1, “PYRIMIDINE-AND NITROGEN-CONTAINING BICYCLIC COMPOUND” (Asahi Kasei Pharma Corporation, priority 2020, published 2024).

Experiment [1] deals with LPS-stimulated TNFα production in THP-1 cells. The experiment is described as follows: LPS-stimulated TNFα production inhibition test using human acute monocytic leukemia cell strain THP-1. Type of experiment: cell-based. The conditions noted are these: LPS 2.5 ng/mL, average values. The procedure: By the THP-1 assay, influence of a test compound on the TNFα production induced by LPS stimulation can be evaluated. The THP-1 cells (ATCC, Cat. TIB-202) were inoculated on a 96-well plate at a density of 1×10^5 cells/160 μL/well, a test compound was added in a volume of 20 μL, and the plate was incubated at 37° C. for 1 hour in a 5% CO2 incubator. Then, LPS in a volume of 20 μL (final concentration 2.5 ng/mL, Sigma, Cat. L2630) was added, and the plate was further incubated for 4 hours. After the incubation, the plate was centrifuged, and 100 μL of the supernatant was taken from each well, and used for evaluation of the amount of TNFα using HTRF (Cisbio, Cat. 62TNFPEB). In the measurement of the amount of TNFα, the supernatant was diluted twice with the medium, and then added to wells of a 384-well plate in a volume of 10 μL, then anti-TNFα-cryptate (5 μL), and anti-TNFα-XL665 (5 μL) were added, and the plate was left standing overnight. The fluorescence intensity ratio for the wavelengths of 620 and 665 nm (620 nm/665 nm) was measured with a microplate reader, and the amount of TNFα in the supernatant was calculated by using a calibration curve. The TNFα production suppression ratio observed with no addition of LPS was defined to be 100%, the TNFα production suppression ratio observed with no addition of the test compound was defined to be 0%, and IC50 of the test compound was calculated by using the 4-parameter logistic model of the data analysis software XLfit (ID Business Solutions Ltd.).

In a further experiment the target is human IRAK-4 (Homo sapiens (Human), UniProt Q9NWZ3). The experiment is described as follows: Measurement of human IRAK-4 inhibitory activity (TR-FRET, peptide substrate phosphorylation, 10 μM ATP). It counts as biochemical. The settings on record: 1 nM IRAK-4, 10 μM ATP, 23° C., 30 minutes; average values. The procedure: For the measurement of the activity of the human IRAK-4 (Invitrogen, Cat. PV3362), phosphorylation of the IRAK-4 peptide substrate (biotin-KKKKRFSFKKSFKC) by the enzyme in the presence of 10 μM ATP (Sigma-Aldrich, Cat. A7699) was measured by the TR-FRET method. The enzymatic reaction was performed in a reaction buffer containing 50 mM HEPES (pH 7.2), 1 mM DTT, 0.1 mM Na3VO4, 5 mM MgCl2, 1 mM MnCl2, and 0.1% bovine serum albumin. For the measurement of the IRAK-4 inhibitory activity, a test compound was added to the reaction buffer containing 1 nM IRAK-4, 0.5 μM peptide substrate, and 10 μM ATP, and the mixture was incubated at 23° C. for 30 minutes. Then, a detection solution containing an antibody labeled with europium cryptate (0.3 μg/mL, the antibody was prepared by using the IRAK-4 peptide substrate as the antigen), streptavidin-XL665 (2 μg/mL, CisBio, Cat. 610SAXLB), 50 mM HEPES (pH 7.2), 0.1% BSA, 120 mM KF, and 66.7 mM EDTA (all the concentrations of the reagents are final concentrations) was added to terminate the reaction, and then the mixture was further incubated at 23° C. for 60 minutes. Fluorescence intensity was measured at wavelengths of 665 nm and 620 nm with a microplate reader, and the enzymatic activity was calculated as the ratio of fluorescence intensities at 665 nm and 620 nm (665 nm/620 nm).
(In TR-FRET formats the signal depends on donor and acceptor labels being close together.)

Sequence of human IRAK-4 (Q9NWZ3 whole entry): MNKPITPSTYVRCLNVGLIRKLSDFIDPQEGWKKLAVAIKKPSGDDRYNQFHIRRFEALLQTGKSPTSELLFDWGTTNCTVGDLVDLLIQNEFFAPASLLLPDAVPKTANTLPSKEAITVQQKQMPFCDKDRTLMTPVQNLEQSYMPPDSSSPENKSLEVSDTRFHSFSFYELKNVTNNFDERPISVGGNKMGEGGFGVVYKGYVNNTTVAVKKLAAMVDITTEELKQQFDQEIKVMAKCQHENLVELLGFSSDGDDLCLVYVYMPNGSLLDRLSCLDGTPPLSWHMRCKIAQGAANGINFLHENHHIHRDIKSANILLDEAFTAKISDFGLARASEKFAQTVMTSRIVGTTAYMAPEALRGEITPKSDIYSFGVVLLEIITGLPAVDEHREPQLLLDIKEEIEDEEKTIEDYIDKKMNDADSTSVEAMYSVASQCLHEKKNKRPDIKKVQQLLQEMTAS

For orientation: IC50 means the concentration at which inhibition is half-maximal. Low values mean higher potency, high ones lower potency. Consider `C[C@H]1CN(C(=O)c2ccncc2Cl)CCN1[C@H]1C[C@@H](C(=O)Nc2nc3ccc(-c4cnc(CO[C@H]5CCC[C@@H]5O)nc4)cc3s2)C1` [b-04-48], for which the IC50 was 35 nM in experiment [1] (Homo sapiens, THP-1, 4 h) and 0.52 nM against human IRAK-4.
With `O=C(Nc1nc2ccc(-c3cnc(CO[C@H]4CCC[C@@H]4O)nc3)cc2s1)C1CC(NC2(C(F)(F)F)CC2)C1` (some centres unmarked) [b-02-57], the 50% inhibitory concentration (IC50) is 119 nM in experiment [1] (Homo sapiens, THP-1, 4 h) and 2.62 nM against human IRAK-4.
Take `CN1CCN(C2CC(C(=O)Nc3nc4ccc(-c5cnc(CO[C@H]6CCC[C@@H]6O)nc5)cc4s3)C2)CC1` (some centres unmarked) [b-02-22]: the 50% inhibitory concentration (IC50) in experiment [1] (Homo sapiens, THP-1, 4 h) was found to be 208 nM; on human IRAK-4, 1.89 nM.
The matching figures for `CC[C@H]1CN(C(=O)C2CCOC2)CCN1C1CC(C(=O)Nc2nc3ccc(-c4cnc(CO[C@H]5CCC[C@@H]5O)nc4)cc3s2)C1` (some centres unmarked) [b-04-18]: 30 nM and 1.11 nM.
On the same counts, the results for `O=C(Nc1nc2ccc(-c3cnc(CO[C@H]4CCC[C@@H]4O)nc3)cc2s1)C1CC2(CCOCC2)C1` [d-01-05] are 101 nM and 2.07 nM.
As for `O=C(Nc1nc2ccc(-c3cnc(CO[C@H]4CCC[C@@H]4O)nc3)cc2s1)[C@@H]1C[C@@H]1F` [a-01-04], the half-inhibitory concentration (IC50) in experiment [1] (Homo sapiens, THP-1, 4 h) stood at 151 nM; on human IRAK-4 it was 1.73 nM.
For `COc1c(-c2cnc(CO[C@H]3CCC[C@H]3O)nc2)ccn2nc(NC(=O)C3CC3)cc12` [e-04-02], the IC50 in experiment [1] (4 hours) amounted to 314 nM; at human IRAK-4, 1.07 nM.
With `CCOc1c(-c2cnc(CO[C@H]3CCC[C@@H]3O)nc2)ccc2nc(NC(=O)C3CC3)sc12` [c-04-02], the IC50 in experiment [1] (Homo sapiens, THP-1, 4 h) came out at 207 nM; against human IRAK-4, 6.33 nM.
Consider `O=C(Nc1nc2ccc(-c3cnc(CO[C@H]4CCC[C@@H]4O)nc3)cc2s1)C1C[C@H]1C1CCOCC1` (some centres unmarked) [a-01-09], for which the IC50 in experiment [1] (Homo sapiens, THP-1, 4 h) turned out to be 140 nM; on human IRAK-4, 1.81 nM.
As to `O=C(Nc1nc2ccc(-c3cnc(CO[C@H]4CCC[C@@H]4O)nc3)c(OCc3nccs3)c2s1)C1CC1` [c-06-02], the IC50 in experiment [1] (Homo sapiens, THP-1, 4 h) was found to be 317 nM; on human IRAK-4, 10.7 nM.
In the case of `C[C@]1(O)C[C@@H](C(=O)Nc2nc3ccc(-c4cnc(CO[C@H]5CCC[C@@H]5O)nc4)cc3s2)C1` [d-01-02], the IC50 in experiment [1] (Homo sapiens, THP-1, 4 h) was 165 nM; against human IRAK-4, 2.75 nM.
The matching figures for `O=C(Nc1nc2ccc(-c3cnc(CO[C@H]4CCC[C@@H]4O)nc3)cc2s1)C1CC(NC2CCC2)C1` (some centres unmarked) [b-02-48]: 143 nM and 2.03 nM.
On the same counts, the results for `O=C(Nc1nc2ccc(-c3cnc(CO[C@H]4CCC[C@@H]4O)nc3)cc2s1)C1CC(NC23CC(C2)C3)C1` (some centres unmarked) [b-02-29] are 124 nM and 2.43 nM.
For `CCCOCc1ncc(-c2ccn3nc(NC(=O)[C@H]4C[C@@H](N5CCN(C(=O)c6cc(C)nc(C)c6)C[C@@H]5C)C4)cc3c2)cn1` [e-02-23], the IC50 in experiment [1] (Homo sapiens, THP-1, 4 h) was found to be 111 nM; against human IRAK-4 it was 0.88 nM.
Consider `Cc1ccc(C(=O)N2CCN([C@H]3C[C@@H](C(=O)Nc4nc5ccc(-c6cnc(CO[C@H]7CCC[C@@H]7O)nc6)cc5s4)C3)[C@@H](C)C2)cn1` [b-04-44], for which the concentration for half-maximal inhibition (IC50) amounted to 23 nM in experiment [1] (Homo sapiens, THP-1, 4 h) and 0.46 nM against human IRAK-4.
The matching figures for `O=C(Nc1nc2ccc(-c3cnc(CO[C@H]4CCC[C@@H]4O)nc3)cc2s1)C1CC(N2CCCC(F)(F)C2)C1` (some centres unmarked) [b-02-10]: 141 nM and 3.94 nM.
The matching figures for `O=C(Nc1nc2ccc(-c3cnc(CO[C@H]4CCC[C@@H]4O)nc3)cc2s1)C1CC2(CCN(C(=O)c3cccnc3)CC2)C1` [d-03-07]: 139 nM and 0.852 nM.
On the same counts, the results for `C[C@H]1CN(C(=O)C23CC(C2)C3)CCN1[C@H]1C[C@@H](C(=O)Nc2nc3ccc(-c4cnc(CO[C@H]5CCC[C@@H]5O)nc4)cc3s2)C1` [b-04-10] are 30 nM and 3.94 nM.
Turning to `Cn1cc([C@@H]2CC2C(=O)Nc2nc3ccc(-c4cnc(CO[C@H]5CCC[C@@H]5O)nc4)cc3s2)cn1` (some centres unmarked) [a-01-07], the 50% inhibitory concentration (IC50) in experiment [1] (Homo sapiens, THP-1, 4 h) came to 148 nM; against human IRAK-4, 1.73 nM.
With `CN(CCO)C1CC(C(=O)Nc2nc3ccc(-c4cnc(CO[C@H]5CCC[C@@H]5O)nc4)cc3s2)C1` (some centres unmarked) [b-02-72], the 50% inhibitory concentration (IC50) in experiment [1] (Homo sapiens, THP-1, 4 h) amounted to 162 nM; against human IRAK-4, 1.47 nM.
In the case of `CC(C)[C@H]1COCCN1C1CC(C(=O)Nc2nc3ccc(-c4cnc(CO[C@H]5CCC[C@@H]5O)nc4)cc3s2)C1` (some centres unmarked) [b-02-32], the IC50 in experiment [1] (Homo sapiens, THP-1, 4 h) is 41 nM; at human IRAK-4 it was 2.37 nM.
For the molecule `O=C(Nc1nc2ccc(-c3cnc(CO[C@H]4CCC[C@@H]4O)nc3)cc2s1)C1CC(N(CCC(F)(F)F)C23CC(C2)C3)C1` (some centres unmarked) [b-03-02], the 50% inhibitory concentration (IC50) came to 145 nM in experiment [1] (Homo sapiens, THP-1, 4 h) and 11 nM at human IRAK-4.
The matching figures for `C[C@H]1CN(C(=O)OC(C)(C)C)CCN1[C@H]1C[C@@H](C(=O)Nc2nc3ccc(-c4cnc(CO[C@H]5CCC[C@@H]5O)nc4)cc3s2)C1` [b-04-01, tert-Butyl (S)-4-((1S,3R)-3-((6-(2-((((1S,2S)-2-hydroxycyclopentyl)oxy)methyl)pyrimidin-5-yl)benzo[d]thiazol-2-yl)carbamoyl)cyclobutyl)-3-methylpiperazine-1-carboxylate]: 51 nM and 5.49 nM.
With `O=C(Nc1nc2ccc(-c3cnc(CO[C@H]4CCC[C@@H]4O)nc3)cc2s1)C1C[C@H]1c1ccncc1` (some centres unmarked) [a-01-08], the IC50 was 161 nM in experiment [1] (Homo sapiens, THP-1, 4 h) and 2.66 nM against human IRAK-4.
Regarding `COCCN1CCN(C2CC(C(=O)Nc3nc4ccc(-c5cnc(CO[C@H]6CCC[C@@H]6O)nc5)cc4s3)C2)CC1` (some centres unmarked) [b-02-25], the IC50 amounted to 199 nM in experiment [1] (Homo sapiens, THP-1, 4 h) and 1.98 nM against human IRAK-4.
The matching figures for `COc1c(-c2cnc(CO[C@H]3CC(F)(F)C[C@@H]3O)nc2)ccc2nc(NC(=O)C3CC3)sc12` [c-04-01, N-(6-(2-((((1S,2S)-4,4-Difluoro-2-hydroxycyclopentyl)oxy)methyl)pyrimidin-5-yl)-7-methoxybenzo[d]thiazol-2-yl)cyclopropanecarboxamide]: 115 nM and 4.04 nM.
Take `CCC(=O)N1CCN([C@H]2C[C@@H](C(=O)Nc3cc4cc(-c5cnc(CO[C@H]6CCC[C@@H]6O)nc5)ccn4n3)C2)[C@@H](C)C1` [e-02-05]: the IC50 in experiment [1] (Homo sapiens, THP-1, 4 h) stood at 123 nM; against human IRAK-4, 1.14 nM.
The matching figures for `O=C(Nc1nc2ccc(-c3cnc(CO[C@H]4CCC[C@@H]4O)nc3)cc2s1)C1CC(N2CCCCO2)C1` (some centres unmarked) [b-02-77]: 187 nM and 2.6 nM.
As for `CO[C@@H]1CCN(C2CC(C(=O)Nc3nc4ccc(-c5cnc(CO[C@H]6CCC[C@@H]6O)nc5)cc4s3)C2)C1` (some centres unmarked) [b-02-15], the 50% inhibitory concentration (IC50) in experiment [1] (Homo sapiens, THP-1, 4 h) came out at 157 nM; against human IRAK-4 it was 2.25 nM.
The matching figures for `O=C(Nc1nc2ccc(-c3cnc(CO[C@H]4CCC[C@@H]4O)nc3)c(OCCO)c2s1)C1CC1` [c-06-01, N-(6-(2-((((1S,2S)-2-Hydroxycyclopentyl)oxy)methyl)pyrimidin-5-yl)-7-(2-hydroxyethoxy)benzo[d]thiazol-2-yl)cyclopropanecarboxamide]: 358 nM and 5.45 nM.
The matching figures for `C[C@H]1CN(C(=O)c2cccc(C(F)(F)F)n2)CCN1[C@H]1C[C@@H](C(=O)Nc2nc3ccc(-c4cnc(CO[C@H]5CCC[C@@H]5O)nc4)cc3s2)C1` [b-04-19]: 39 nM and 1.38 nM.
